From patent publication US4485110A, “β-Lactam compounds, and use” (priority 1980, dated 1984) come the findings set out here.

Like-named read-outs stand apart in the source and are kept apart here. Where only a bound is given, the exact number is not on record here.

Assay in all cases: Antibacterial activity, broth MIC
Common to all, as to type: cell-based

Assay [1] concerns B. subtilis A. As to conditions: Bacillus subtilis, compound alone. An excerpt: (§1) The antibacterial activity of a number of compounds described in the foregoing Examples against a number of organisms is shown in Tables 1 and 10.
Assay [2] deals with C. freundii E 8. The conditions noted are these: Citrobacter freundii.
From the text: as §1

In assay [3] the test system is E. cloacae N 1. The conditions noted are these: Enterobacter cloacae, N1, compound alone.
From the text: as §1

For assay [4], the system named is E. coli 0111. The conditions noted are these: Escherichia coli, compound alone.
From the text: as §1

Assay [5] concerns E. coli ESS. As to conditions: Escherichia coli, read-out: Broth MIC.
From the text: as §1

The test system of assay [6] is E. coli JT 39 R^+. As to conditions: Escherichia coli, read-out: Broth MIC.
From the text: as §1

The subject of assay [7] is K. aerogenes A. The conditions noted are these: Klebsiella aerogenes, read-out: Broth MIC.
From the text: as §1

Assay [8] has as its system P. aeruginosa A. As to conditions: Pseudomonas aeruginosa, compound alone.
From the text: as §1

The subject of assay [9] is P. mirabilis 977. The conditions noted are these: Proteus mirabilis, compound alone.
From the text: as §1

In assay [10] the test system is P. morganii I 580. As to conditions: Morganella morganii, I580, compound alone.
From the text: as §1

The test system of assay [11] is P. rettgeri WM 16. The conditions noted are these: Providencia rettgeri, WM16, compound alone.
From the text: as §1

For assay [12], the system named is P. vulgaris WO 91. As to conditions: Proteus vulgaris, WO91, compound alone.
From the text: as §1

In assay [13] the test system is S. aureus 1517. As to conditions: Staphylococcus aureus, compound alone.
From the text: as §1

Assay [14] concerns S. aureus Oxford. The conditions noted are these: Staphylococcus aureus, compound alone.
From the text: as §1

Assay [15] deals with S. aureus Russell. The conditions noted are these: Staphylococcus aureus, compound alone.
From the text: as §1

The subject of assay [16] is S. faecalis I. As to conditions: Enterococcus faecalis, read-out: Broth MIC.
From the text: as §1

Assay [17] relates to S. marcescens US 20. As to conditions: Serratia marcescens.
From the text: as §1

In assay [18] the test system is S. pneumoniae CN 33. As to conditions: Streptococcus pneumoniae, CN33, compound alone.
From the text: as §1

Assay [19] concerns S. pyogenes CN 10. The conditions noted are these: Streptococcus pyogenes, CN10, compound alone.
From the text: as §1

Assay [20] concerns S. sonnei MB 11967. As to conditions: Shigella sonnei, MB11967, compound alone.
From the text: as §1

For assay [21], the system named is S. typhimurium CT 10. The conditions noted are these: Salmonella enterica, compound alone.
From the text: as §1

Where [22] appears, read: E8, compound alone, broth, read-out: Broth MIC.
Setting [23] is: US20, compound alone, broth, read-out: Broth MIC.

As to `C/C=C1/C(=O)N2C(C(=O)O)=CSC12` (racemic) [Compound 40, (5RS)-Sodium(Z)-6-Ethylidenepenem-3-carboxylate], the MIC in assay [1] worked out at 31 µg/mL; in [2] (setting [22]) it was 125 µg/mL; in [3] it was 125 µg/mL; in assay [4], 62 µg/mL; in assay [5] (compound alone, broth) it was 16 µg/mL; in assay [6] (compound alone, broth), 62 µg/mL. The MIC in [7] (compound alone, broth) stood at 62 µg/mL; in [8], 250 µg/mL; in assay [9], 250 µg/mL; in assay [10] it was 250 µg/mL; in [11], 125 µg/mL; in [12], 250 µg/mL. Besides, the MIC in assay [13] was 125 µg/mL; in [14], 8 µg/mL; in assay [15], 16 µg/mL; in assay [16] (compound alone, broth), over 250 µg/mL; in [17] (setting [23]), 250 µg/mL; in assay [18], 31 µg/mL. The minimal inhibitory concentration (MIC) came out at 8 µg/mL in [19], 62 µg/mL in assay [20] and 62 µg/mL in assay [21].
Regarding `CC=C1C(=O)N2C(C(=O)O)=C(Sc3ccccn3)SC12` (racemic) [Compound 99, (5RS)-Sodium 6-Ethylidene-2-(2-pyridylthio)penem-3-carboxylate], the MIC amounted to 6.2 µg/mL in assay [1]; 100 µg/mL in assay [2] (setting [22]); 25 µg/mL in assay [3]; 100 µg/mL in [4]; 3.1 µg/mL in [5] (compound alone, broth); 50 µg/mL in assay [6] (compound alone, broth). Moreover, the minimum inhibitory concentration (MIC) in assay [7] (compound alone, broth) was 50 µg/mL; in assay [8], over 100 µg/mL; in assay [9], 100 µg/mL; in assay [10] it was 50 µg/mL; in [11] it was 25 µg/mL; in assay [12], 50 µg/mL. Besides, the MIC in assay [13] was 100 µg/mL; in assay [14], 12.5 µg/mL; in [15] it was 6.2 µg/mL; in [16] (compound alone, broth) it was over 100 µg/mL; in assay [17] (setting [23]) it was 50 µg/mL; in assay [19] it was 1.6 µg/mL. Also, the MIC in assay [20] and in [21] was 50 µg/mL in each case.
`CC=C1C(=O)N2C(C(=O)O)=C([S+]([O-])CC)SC12` (racemic) [Compound 103, (5RS)-Sodium 6-Ethylidene-2-ethylsulphinylpenem-3-carboxylate]: the MIC in assay [1] is 25 µg/mL; in [2] (setting [22]) it was over 100 µg/mL; in [3] it was over 100 µg/mL; in assay [4], over 100 µg/mL; in assay [5] (compound alone, broth) it was 100 µg/mL; in assay [6] (compound alone, broth), over 100 µg/mL. Besides, the MIC was over 100 µg/mL in assay [7] (compound alone, broth); over 100 µg/mL in [8]; 100 µg/mL in [9]; over 100 µg/mL in [10]; over 100 µg/mL in [11]; over 100 µg/mL in assay [12]. For the same molecule, the minimum inhibitory concentration (MIC) is over 100 µg/mL in assay [13]; 50 µg/mL in [14]; over 100 µg/mL in [15]; over 100 µg/mL in assay [16] (compound alone, broth); over 100 µg/mL in assay [17] (setting [23]); 25 µg/mL in [18]. For the same molecule, the minimal inhibitory concentration (MIC) is 12.5 µg/mL in [19], over 100 µg/mL in assay [20] and over 100 µg/mL in assay [21].
As to `CCSC1=C(C(=O)O)N2C(=O)C(=C(C)C)C2S1` (racemic) [Compound 129, (5RS)-Sodium 2-Ethylthio-6-isopropylidenepenem-3-carboxylate], the MIC in [1] turned out to be 25 µg/mL; in assay [5], 12.5 µg/mL; in assay [14] it was 12.5 µg/mL; in assay [15], 12.5 µg/mL; in [16] (compound alone, broth), 50 µg/mL; in assay [18] it was 1.6 µg/mL. The molecule also returned a minimum inhibitory concentration (MIC) in [19] of 0.4 µg/mL.
For the molecule `C/C=C1/C(=O)N2C(C(=O)O)=C(CCC)SC12` (racemic) [Compound 49, (5RS)-Sodium(Z)-6-Ethylidene-2-n-propylpenem-3-carboxylate], the MIC in [1] turned out to be 1 µg/mL; in assay [2] (E8, read-out: Broth MIC) it was 125 µg/mL; in [3], 62 µg/mL; in assay [4] it was 125 µg/mL; in assay [5] (compound alone, broth), 1 µg/mL; in assay [6] (compound alone, broth), 62 µg/mL. In addition, the MIC in assay [7] (compound alone, broth) was 31 µg/mL; in assay [8] it was over 250 µg/mL; in assay [9], 62 µg/mL; in assay [10], 31 µg/mL; in assay [11], 62 µg/mL; in [12], 62 µg/mL. Moreover, the minimal inhibitory concentration (MIC) in [13] is 62 µg/mL; in [14], 1 µg/mL; in [15], 2 µg/mL; in [16] it was 125 µg/mL; in [17] (US20, read-out: Broth MIC), 125 µg/mL; in assay [18], at most 0.2 µg/mL. In addition, the MIC in assay [20] and in assay [21] was 62 µg/mL throughout.
As for `C/C=C1/C(=O)N2C(C(=O)O)=C(C)SC12` (racemic) [Compound 76, (5RS)-Sodium (Z)-Ethylidene-2-methylpenem-3-carboxylate], the MIC in assay [1] is 25 µg/mL; in assay [2] (setting [22]), 100 µg/mL; in [3] it was over 100 µg/mL; in [4] it was 100 µg/mL; in [5] (compound alone, broth), 6.2 µg/mL; in assay [6] (compound alone, broth), 100 µg/mL. Also, the minimum inhibitory concentration (MIC) was over 100 µg/mL in assay [7] (compound alone, broth); 100 µg/mL in assay [8]; 100 µg/mL in assay [9]; 100 µg/mL in assay [10]; over 100 µg/mL in [11]; over 100 µg/mL in [12]. Also, the MIC in assay [13] is 50 µg/mL; in assay [14] it was 12.5 µg/mL; in [15], 6.2 µg/mL; in assay [16] (compound alone, broth), over 100 µg/mL; in assay [17] (setting [23]), over 100 µg/mL; in assay [20], 100 µg/mL. The molecule further registered an MIC in assay [21] of 100 µg/mL.
`C/C=C1\C(=O)N2C(C(=O)O)=C(SCC)SC12` (racemic) [Compound 29, (5RS)-Sodium (E)-6-Ethylidene-2-ethylthiopenem-3-carboxylate]: the MIC stood at 2 µg/mL in [1]; 62 µg/mL in assay [2] (setting [22]); 31 µg/mL in assay [3]; 31 µg/mL in assay [4]; 2 µg/mL in assay [5] (compound alone, broth); 31 µg/mL in assay [6] (compound alone, broth). Further, the minimum inhibitory concentration (MIC) in assay [7] (compound alone, broth) is 16 µg/mL; in assay [8] it was over 500 µg/mL; in assay [9] it was 125 µg/mL; in assay [10], 31 µg/mL; in assay [11], 62 µg/mL; in assay [12] it was 62 µg/mL. Further, the minimal inhibitory concentration (MIC) in [13] was determined as 16 µg/mL; in [14] it was 2 µg/mL; in assay [16] (compound alone, broth), 250 µg/mL; in [17] (setting [23]), 62 µg/mL; in assay [18], 1 µg/mL; in assay [19], 4 µg/mL. Besides, the MIC in assay [20] and in [21] was 62 µg/mL throughout.
With `CC=C1C(=O)N2C(C(=O)O)=C(SCCNC(C)=O)SC12` (racemic) [Compound 59, (5RS)-Sodium 2-(2-Acetamidoethylthio)-6-ethylidenepenem-3-carboxylate], the MIC in assay [1] amounted to 3.1 µg/mL; in assay [2] (setting [22]), 25 µg/mL; in [3], 25 µg/mL; in assay [4] it was 25 µg/mL; in assay [5] (compound alone, broth), 3.1 µg/mL; in assay [6], 12.5 µg/mL. Moreover, the MIC was 12.5 µg/mL in assay [7]; over 100 µg/mL in assay [8]; 25 µg/mL in assay [9]; 25 µg/mL in assay [10]; 25 µg/mL in [11]; 25 µg/mL in assay [12]. Moreover, the MIC is over 100 µg/mL in [13]; 3.1 µg/mL in assay [14]; 3.1 µg/mL in assay [15]; 100 µg/mL in assay [16] (compound alone, broth); 25 µg/mL in assay [17] (setting [23]); 0.2 µg/mL in assay [18]. Also, the minimal inhibitory concentration (MIC) in [19] is at most 0.1 µg/mL; in assay [20], 25 µg/mL; in assay [21] it was 12.5 µg/mL.
Turning to `CC=C1C(=O)N2C(C(=O)O)=C(SCCN)SC12` (racemic) [Compound 101, (5RS)-Sodium 2-(2-aminoethylthio)-6-ethylidenepenem-3-carboxylate], the MIC in assay [1] came out at 12.5 µg/mL; in assay [2] (setting [22]), 100 µg/mL; in [3], 100 µg/mL; in [4], 100 µg/mL; in assay [5] (compound alone, broth) it was 12.5 µg/mL; in assay [6] (compound alone, broth), 100 µg/mL. The MIC is 100 µg/mL in [7] (compound alone, broth); over 100 µg/mL in assay [8]; over 100 µg/mL in assay [9]; over 100 µg/mL in assay [10]; 100 µg/mL in assay [11]; 100 µg/mL in [12]. Further, the minimum inhibitory concentration (MIC) in assay [13] is over 100 µg/mL; in [14], 3.1 µg/mL; in assay [15], 3.1 µg/mL; in assay [16] (compound alone, broth), over 100 µg/mL; in assay [17] (setting [23]), over 100 µg/mL; in assay [19] it was 3.1 µg/mL. Moreover, the MIC in assay [20] and in [21] was 100 µg/mL throughout.
